The values below come from PubChem BioAssay (NCI).

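The compound was tested at five concentrations on cells cultured in 96-well plates, with a 48-hour exposure period. GI50 marks 50% less growth. TGI: total growth inhibition.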

Test systems include CCRF-CEM leukemia; IGROV1 ovarian; MDA-MB-435; NCI/ADR-RES ovarian; OVCAR-8 ovarian; RPMI-8226 leukemia; RXF 393 renal; SF-539 CNS; SNB-19 CNS; UACC-62 melanoma.
Common to all, as to experiment: growth of human tumour cells (NCI), 48 h

As to `O=C1OC(c2ccccc2)(c2cc(Br)c(O)c(Br)c2)c2ccccc21` (stereo not given), the GI50 was 38.3 µM in the assay on CCRF-CEM leukemia; 33.6 µM in the assay on IGROV1 ovarian; 22.6 µM in the assay on MDA-MB-435; 26 µM in the assay with NCI/ADR-RES ovarian; 29.3 µM in the assay on OVCAR-8 ovarian; 28.7 µM with RPMI-8226 leukemia. Besides, the GI50 was 18.6 µM with RXF 393 renal, 26.6 µM in the assay on SF-539 CNS, 29.7 µM with SNB-19 CNS and 15.6 µM in the assay on UACC-62 melanoma. Besides, the TGI was greater than 100 µM in the assay on CCRF-CEM leukemia; greater than 100 µM in the assay on IGROV1 ovarian; 77.1 µM in the assay on MDA-MB-435; 84.3 µM in the assay on NCI/ADR-RES ovarian; greater than 100 µM in the assay on OVCAR-8 ovarian; 78.5 µM in the assay on RPMI-8226 leukemia. For the same molecule, the TGI in the assay with RXF 393 renal is 36.4 µM; with SF-539 CNS it was 80.6 µM; in the assay with SNB-19 CNS, greater than 100 µM; with UACC-62 melanoma, 31.7 µM.

With `CCCCCCc1nc2nc(Cl)c(Cl)nc2[nH]1`, the GI50 was 5.8 µM in the assay with CCRF-CEM leukemia; 18.9 µM in the assay on IGROV1 ovarian; 8.68 µM in the assay on MDA-MB-435; 6.92 µM in the assay with NCI/ADR-RES ovarian; greater than 100 µM in the assay on OVCAR-8 ovarian; 2.66 µM in the assay on RPMI-8226 leukemia. Also, the GI50 in the assay with RXF 393 renal is 7.55 µM; in the assay on SF-539 CNS, greater than 100 µM; in the assay with SNB-19 CNS, 6.2 µM; with UACC-62 melanoma it was 3.2 µM. The TGI in the assay on CCRF-CEM leukemia, in the assay on IGROV1 ovarian, with MDA-MB-435, in the assay with NCI/ADR-RES ovarian, in the assay on OVCAR-8 ovarian and in the assay with RPMI-8226 leukemia was greater than 100 µM in each case. Further, the TGI with RXF 393 renal, in the assay on SF-539 CNS, in the assay on SNB-19 CNS and in the assay on UACC-62 melanoma was greater than 100 µM each time.

`CNC(=O)Oc1cc(C)c(/C=C/c2cncc(C(=O)NC)c2)c(C)c1`: the GI50 was 24.8 µM in the assay with CCRF-CEM leukemia; greater than 23.2 µM in the assay with IGROV1 ovarian; 8.44 µM in the assay with MDA-MB-435; greater than 25 µM in the assay with NCI/ADR-RES ovarian; greater than 25 µM in the assay on OVCAR-8 ovarian; greater than 25 µM in the assay on RPMI-8226 leukemia. The GI50 in the assay on RXF 393 renal was 14.1 µM; in the assay with SF-539 CNS, greater than 21.6 µM; in the assay on SNB-19 CNS, greater than 25 µM; with UACC-62 melanoma it was 13.2 µM. For the same molecule, the TGI in the assay on CCRF-CEM leukemia, in the assay on IGROV1 ovarian, with MDA-MB-435, in the assay with NCI/ADR-RES ovarian, with OVCAR-8 ovarian and in the assay on RPMI-8226 leukemia was greater than 25 µM in each case. For the same molecule, the TGI with RXF 393 renal, in the assay with SF-539 CNS, in the assay with SNB-19 CNS and with UACC-62 melanoma was greater than 25 µM throughout.
